{"source": "patent US20120219597A1", "about": "“PHARMACEUTICAL FORMULATIONS FOR INDIBULIN” (ZIOPHARM Oncology, Inc., priority 2009, published 2012)", "origin": "cited, not measured here", "key": {"[1]": {"conditions": "pure indibulin"}, "[2]": {"conditions": "in water, methanol, ethanol or 2-propanol"}}, "data": [{"smiles": "O=C(Nc1ccncc1)C(=O)c1cn(Cc2ccc(Cl)cc2)c2ccccc12", "note": "[indibulin]", "values": [{"measurement": "bioavailability", "setting": "[1]", "value": "low"}, {"measurement": "solubility", "setting": "[2]", "value": "practically insoluble"}]}]}
